The data set can be described thus: Rate of polymerization of BCA on a glass slide as a function of HMDS concentration. It counts as physicochemical. On the procedure: Additionally, a test was conducted for the rate of polymerization as a function of solvent concentration in order to assess the time interval for heat generation upon the polymerization of the cyanoacrylate monomer. The mixture included n-butyl cyanoacrylate in the presence and absence of hexamethyldisiloxane. […] Utilizing a glass slide containing BCA with no HMDS as the control, polymerization of this neat system occurred in 25 seconds. When a 20% BCA solution in HMDS was studied, utilizing the same amount of BCA as in the control, polymerization occurred in 40 seconds, and decreased the polymerization rate by 60%. […] Thus, the addition of the non-stinging, non-irritating volatile hexamethyldisiloxane solvent caused polymerization of the cyanoacrylate to occur at a slower rate than that reported by U.S. Pat. No. 6,010,714, allowing the heat of polymerization to be more evenly dissipated. […] The use of the HMDS would thus facilitate rapid coverage of a wound site.

Consider `C=C(C#N)C(=O)OCCCC` [BCA, n-Butyl cyanoacrylate], for which the “flow over the glass surface” value was “tended to bead”. For the same molecule, for the setting “same amount of BCA as control”, the “time in which polymerization occurred” value was determined as 25 s.

For the origin of these results see patent publication US8784793B2, “Conformable solvent-based bandage and coating material” (Rochal Industries LLP, priority 2005, dated 2014).
